# Laboratory results from PMC4805166, “Synthetic Cyclolipopeptides Selective against Microbial, Plant and Animal Cell Targets by Incorporation of D-Amino Acids or Histidine” (PLoS ONE, 2016).
# Where a SMILES comes first, the peptide text is derived from it. Side-chain parts run from the residue outwards. [ ]: non-standard residue; d: D form. The star is where a group is joined. Pentanoyl(4-Me) = CC(C)CCC(=O)*; Hexanoyl = CCCCCC(=O)*; Butyryl = CCCC(=O)*
# Experiments:
# [1] = tested on: Pseudomonas syringae pv. syringae EPS94; format: cell-based; details: 48 h
# In short: (§1)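 Peptide dilutions (stocks 500–31.1 μM) mixed 1:10 with 10^8 CFU/mL bacterial suspension in TSB. Incubated 25 °C, OD600 read hourly for 48 h, triplicates, repeated twice. MIC: lowest concentration with no growth at end.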
# [2] = tested on: Xanthomonas axonopodis pv. vesicatoria 2133–2; format: cell-based; details: TSB, 25°C, 48 h, OD 600 nm; tested at 3.1, 6.2, 12.5, 25, 50 μM; three replicates, experiment repeated twice; MIC = lowest concentration with no growth
# In short: as §1
# [3] = tested on: Erwinia amylovora PMV6076; assay: MIC, in vitro growth inhibition; format: cell-based; details: TSB, 25°C, 48 h, OD 600 nm; tested at 3.1, 6.2, 12.5, 25, 50 μM; three replicates, experiment repeated twice; MIC = lowest concentration with no growth
# In short: as §1
# [4] = tested on: Fusarium oxysporum f. sp. lycopersici FOL 3 race 2; assay: MIC, antifungal growth inhibition; format: cell-based; details: PDB with 0.003% chloramphenicol, 20°C, seven days, OD 600 nm; tested at 3.1, 6.2, 12.5, 25, 50 μM; three replicates, repeated twice
# In short: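 Microconidia are grown on PDA at 25 °C and adjusted to 10^4 conidia/mL. Peptide stocks of 500, 250, 125, 62.5 and 31.1 µM (stock, not final) are mixed with conidia in double-concentrated PDB with 0.003% chloramphenicol, in triplicate, and incubated at 20 °C. OD600 is read every 2 h for seven days, and MIC is the lowest concentration with no growth at the end.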
# [5] = tested on: E. amylovora, P. syringae pv. syringae, X. axonopodis pv. vesicatoria and F. oxysporum; format: cell-based; details: for MIC values over the pathogens tested: span of MIC values over the four pathogens; for Antimicrobial activity, in words: authors' overall judgement over the pathogens tested
# Experimental: The following plant pathogenic bacterial strains were used: Erwinia amylovora PMV6076 (Institut National de la Recherche Agronomique, Angers, France), Pseudomonas syringae pv. syringae EPS94 (Institut de Tecnologia Agroalimentària, Universitat de Girona, Spain) and Xanthomonas axonopodis pv. vesicatoria 2133–2 (Instituto Valenciano de Investigaciones Agrarias, Valencia, Spain). All bacteria were stored in Luria Bertani (LB) broth supplemented with glycerol (20%) and maintained at -80°C. Bacteria were scrapped from LB agar after growing for 24–48 h at 25°C. The cell material was suspended in sterile water to obtain a suspension of 10^8 CFU mL^-1.
# Fusarium oxysporum f. sp. lycopersici FOL 3 race 2 (ATCC 201829, American Type Culture Collection) was used as fungal pathogen. The strain was cultured on potato dextrose agar (PDA) plates (Difco) and microconidia were obtained after growth at 25°C. The concentration of conidia was determined using a hemacytometer and adjusted to 10^4 conidia mL^-1.
# Lyophilized peptides were solubilized in sterile Milli-Q water to a final concentration of 1 mM and filter sterilized through a 0.22-μm pore filter. For minimum inhibitory concentration (MIC) assessment, dilutions of the compounds were made to obtain a stock concentration of […]. For antibacterial activity twenty microlitres of each dilution were mixed in a microtiter plate well with 20 μL of the corresponding suspension of the bacterial indicator, 160 μL of Trypticase Soy Broth (TSB) (BioMèrieux, France) to a total volume of 200 μL. For antifungal activity 20 μL of each stock solution were mixed in a microtiter plate well with 80 μL of the corresponding suspension of the fungal pathogen and 100 μL of double concentrated PDB to a total volume of 200 μL containing 0.003% w/v of choramphenicol.
# Three replicates for each strain, compound and concentration were used. Microbial growth was determined by optical density measurement at 600 nm (Bioscreen C, Labsystem, Helsinki, Finland). For antibacterial activity microplates were incubated at 25°C with 20 sec shaking before hourly absorbance measurement for 48 h. For antifungal activity microplates were incubated at 20°C with 1 min shaking before absorbance measurement that were done every two hours during seven days. The experiment was repeated twice. The MIC was taken as the lowest compound concentration with no growth at the end of the experiment.
# [6] = tested on: erythrocyte suspensions of horse blood; details: horse erythrocytes 5% vol/vol, TRIS buffer pH 7.2, 1 h at 37°C, absorbance 540 nm, relative to melittin 100 μM, ± confidence interval (α = 0.05); for Hemolysis (%) 150 µM: 150 µM peptide; for Hemolysis (%) 250 µM: 250 µM peptide;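 as to all read-outs here: Read-out is hemoglobin release into the supernatant, with a buffer-only blank subtracted as the 0% baseline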
# [7] = tested on: X. axonopodis pv. vesicatoria; assay: Bactericidal activity (killing assay); format: cell-based, Xanthomonas axonopodis pv. vesicatoria; details: 5 μM peptide, LB broth, aliquots every 30 min during 3 h, viable counts; triplicates
# Experimental: In a total volume of 5 mL, 4 mL of Luria-Bertani (LB) broth were mixed with 0.5 ml of a suspension of X. axonopodis pv. vesicatoria adjusted to 10^8 CFU mL^-1 and 0.5 mL of the peptide solution at 50 μM (final concentration at 5 μM). Aliquots of 500 μL were removed at 30-min intervals during 3 h and the appropriate dilutions were spread onto LB agar using a spiral plater (Eddy Jet; IUL instruments, Spain). Triplicates were performed and colonies were counted after 48 h of incubation at 25°C with an automatic counter (Flash and Go; IUL instruments, Spain) by incorporating the software CounterMat version 5.0.
SMILES,MIC Pss [1],MIC Xav [2],MIC Ea [3],MIC Fo [4],MIC values over the pathogens tested [5],MIC against three pathogens ([5]; three of the four pathogens tested),Hemolysis (%) 150 µM [6],"Antimicrobial activity, in words [5]",Hemolysis (%) 250 µM [6],Bactericidal activity (kinetics of survival) [7]
"CCCCCC(=O)NCCCC[C@@H]1NC(=O)[C@H](CCCCN)NC(=O)[C@H](CC(C)C)NC(=O)[C@H](CCCCN)NC(=O)[C@H](CCCCN)NC(=O)[C@H](CCC(N)=O)NC(=O)[C@H](CC(C)C)NC(=O)[C@H](CCCCN)NC(=O)[C@H](CCCCN)NC(=O)[C@H](Cc2ccccc2)NC1=O [BPC528, c(KKLKK(CO-nC5H11)FKKLQ)] (cyclo(FKKLQKKLKK(Hexanoyl)))",6.2 to 12.5 µM,3.1 to 6.2 µM,12.5 to 25 µM,6.2 to 12.5 µM,3.1 to 25 µM,< 12.5 µM,98 ± 7%,–,–,–
CCCCCC(=O)NCCCC[C@@H]1NC(=O)[C@H](CCCCN)NC(=O)[C@H](CCC(N)=O)NC(=O)[C@H](CC(C)C)NC(=O)[C@H](CCCCN)NC(=O)[C@H](CCCCN)NC(=O)[C@H](Cc2ccccc2)NC(=O)[C@H](CCCCN)NC(=O)[C@H](CCCCN)NC(=O)[C@H](CC(C)C)NC1=O [BPC588] (cyclo(FKKLQKK(Hexanoyl)LKK)),6.2 to 12.5 µM,3.1 to 6.2 µM,12.5 to 25 µM,6.2 to 12.5 µM,3.1 to 25 µM,–,95 ± 4%,–,–,–
CCCCCC(=O)NCCCC[C@@H]1NC(=O)[C@H](CCC(N)=O)NC(=O)[C@H](CC(C)C)NC(=O)[C@H](CCCCN)NC(=O)[C@H](CCCCN)NC(=O)[C@H](Cc2ccccc2)NC(=O)[C@H](CCCCN)NC(=O)[C@H](CCCCN)NC(=O)[C@H](CC(C)C)NC(=O)[C@H](CCCCN)NC1=O [BPC590] (cyclo(FKKLQK(Hexanoyl)KLKK)),6.2 to 12.5 µM,3.1 to 6.2 µM,6.2 to 12.5 µM,12.5 to 25 µM,3.1 to 25 µM,–,100 ± 9%,–,–,–
"CCCCCC(=O)N[C@@H](CCCCN)C(=O)N[C@@H](CC(C)C)C(=O)NCCCC[C@@H]1NC(=O)[C@H](CCCCN)NC(=O)[C@H](CC(C)C)NC(=O)[C@H](CCCCN)NC(=O)[C@H](CCCCN)NC(=O)[C@H](CCC(N)=O)NC(=O)[C@H](CC(C)C)NC(=O)[C@H](CCCCN)NC(=O)[C@H](CCCCN)NC(=O)[C@H](Cc2ccccc2)NC1=O [BPC596, c(KKLKK(LK-CO-nC5H11)FKKLQ)] (cyclo(FKKLQKKLKK([Leu-Lys-Hexanoyl])))",6.2 to 12.5 µM,<3.1 µM,12.5 to 25 µM,12.5 to 25 µM,–,–,93 ± 5%,important antimicrobial activity,100 ± 11%,–
"CCCCCC(=O)NCCCC[C@H]1NC(=O)[C@H](CCCCN)NC(=O)[C@H](CC(C)C)NC(=O)[C@H](CCCCN)NC(=O)[C@H](CCCCN)NC(=O)[C@H](CCC(N)=O)NC(=O)[C@H](CC(C)C)NC(=O)[C@H](CCCCN)NC(=O)[C@H](CCCCN)NC(=O)[C@@H](Cc2ccccc2)NC1=O [BPC632, c(KKLKk(CO-nC5H11)fKKLQ)] (cyclo(KKLK[dK](Hexanoyl)[dF]KKLQ))",12.5 to 25 µM,25 to 50 µM,25 to 50 µM,12.5 to 25 µM,–,–,21 ± 13%,low active,22 ± 10%,–
"CC(C)CCC(=O)NCCCC[C@H]1NC(=O)[C@H](CCCCN)NC(=O)[C@H](CC(C)C)NC(=O)[C@H](CCCCN)NC(=O)[C@H](CCCCN)NC(=O)[C@H](CCC(N)=O)NC(=O)[C@H](CC(C)C)NC(=O)[C@H](CCCCN)NC(=O)[C@H](CCCCN)NC(=O)[C@@H](Cc2ccccc2)NC1=O [BPC634, c(KKLKk(CO-isoC5H11)fKKLQ)] (cyclo(KKLK[dK](Pentanoyl(4-Me))[dF]KKLQ))",12.5 to 25 µM,25 to 50 µM,>50 µM,6.2 to 12.5 µM,–,–,7 ± 1%,low active,17 ± 8%,–
"CCCCCC(=O)N[C@@H](CCCCN)C(=O)N[C@@H](CC(C)C)C(=O)NCCCC[C@@H]1NC(=O)[C@H](CCCCN)NC(=O)[C@H](CC(C)C)NC(=O)[C@H](CCCCN)NC(=O)[C@H](CCCCN)NC(=O)[C@H](CCC(N)=O)NC(=O)[C@H](CC(C)C)NC(=O)[C@H](CCCCN)NC(=O)[C@H](CCCCN)NC(=O)[C@H](Cc2c[nH]cn2)NC1=O [BPC676, c(KKLKK(LK-CO-nC5H11)HKKLQ)] (cyclo(HKKLQKKLKK([Leu-Lys-Hexanoyl])))",12.5 to 25 µM,6.2 to 12.5 µM,25 to 50 µM,3.1 to 6.2 µM,–,–,3 ± 0.3%,–,–,bactericidal activity
"CCCCCC(=O)NCCCC[C@@H]1NC(=O)[C@H](CCC(N)=O)NC(=O)[C@H](CC(C)C)NC(=O)[C@H](CCCCN)NC(=O)[C@H](CCCCN)NC(=O)[C@@H](Cc2ccccc2)NC(=O)[C@H](CCCCN)NC(=O)[C@H](CCCCN)NC(=O)[C@H](CC(C)C)NC(=O)[C@H](CCCCN)NC1=O [BPC686, c(K(CO-nC5H11)KLKKfKKLQ)] (cyclo(K(Hexanoyl)KLKK[dF]KKLQ))",12.5 to 25 µM,6.2 to 12.5 µM,25 to 50 µM,12.5 to 25 µM,–,–,10 ± 0.2%,–,14 ± 0.4%,bactericidal activity
CCCC(=O)NCCCC[C@@H]1NC(=O)[C@H](CCCCN)NC(=O)[C@H](CCC(N)=O)NC(=O)[C@H](CC(C)C)NC(=O)[C@H](CCCCN)NC(=O)[C@H](CCCCN)NC(=O)[C@H](Cc2ccccc2)NC(=O)[C@H](CCCCN)NC(=O)[C@H](CCCCN)NC(=O)[C@H](CC(C)C)NC1=O [BPC708] (cyclo(FKKLQKK(Butyryl)LKK)),12.5 to 25 µM,6.2 to 12.5 µM,25 to 50 µM,3.1 to 6.2 µM,–,–,2 ± 0.5%,active,3 ± 1%,–
"CCCC(=O)NCCCC[C@@H]1NC(=O)[C@H](CCCCN)NC(=O)[C@H](CCC(N)=O)NC(=O)[C@H](CC(C)C)NC(=O)[C@H](CCCCN)NC(=O)[C@H](CCCCN)NC(=O)[C@@H](Cc2ccccc2)NC(=O)[C@H](CCCCN)NC(=O)[C@H](CCCCN)NC(=O)[C@H](CC(C)C)NC1=O [BPC714, c(KK(CO-C3H7)LKKfKKLQ)] (cyclo(KK(Butyryl)LKK[dF]KKLQ))",25 to 50 µM,12.5 to 25 µM,25 to 50 µM,6.2 to 12.5 µM,–,–,3 ± 1%,–,3 ± 0.5%,bactericidal activity
